Here are results for 22 molecules from patent US9605005B2, “Alkynyl alcohols and methods of use” (Genentech, Inc., priority 2013, dated 2017).

As a reminder, the IC50 is the point on the concentration scale where inhibition reaches its midpoint. A word on the Ki: it is a measure of affinity in units of concentration, obtained from inhibition or displacement.

Experiment [1] relates to p52 (NF-kB2) nuclear translocation, HeLa cells. The experiment can be described thus: p52 (NF-kB2) nuclear translocation assay in HeLa cells (non-classical NF-kB signaling, anti-lymphotoxin beta receptor antibody stimulated). The class given is cell-based. Conditions: Homo sapiens, 100 ng/mL anti-lymphotoxin beta receptor antibody for 5 hours, read-out: p52 HeLa Transloc Assay (IC50). The method, boiled down:
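HeLa cells in 10% FBS medium were treated with compound (0.2% DMSO final) and stimulated with 100 ng/mL anti-lymphotoxin beta receptor antibody for 5 h. Fixed cells were immunostained for p52 and imaged with DRAQ5 nuclear stain. Translocation is the nuclear to cytoplasmic intensity ratio, and IC50 values are in micromolar.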

For experiment [2], the system named is REL-A (p65) nuclear translocation, HeLa cells. Nature of the experiment: REL-A (p65) nuclear translocation assay in HeLa cells (classical NF-kB signaling, TNF-α stimulated). It counts as cell-based. The note with it: Homo sapiens, 0.5 h; HeLa cells, 10 ng/mL TNF-α for 30 minutes; read-out: REL-A HeLa Transloc Assay (IC50). The method, boiled down: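 HeLa cells were exposed to test compounds at various concentrations (0.2% DMSO final) in medium with 10% fetal bovine serum for 4.5 hours, then stimulated for 30 minutes with 10 ng/mL TNF-α. After fixation in 4% paraformaldehyde, 0.1% Triton X-100 permeabilization and staining with 400 ng/mL anti-REL-A (p65) antibody, Alexa488 secondary and DRAQ5, Opera imaging gave nuclear-to-cytoplasmic signal ratios to calculate IC50.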

In experiment [3] the target is nuclear factor-kappa B (NF-kB)-inducing kinase (NIK) (Homo sapiens (Human), UniProt Q99558). Nature of the experiment: NIK enzyme inhibition assay (Transcreener ADP, NIK ADP-FP). The note with it: purified NIK 0.5 nM, 10 μM ATP, fluorescence polarization; read-out: NIK ADP-FP (Ki μM). The class given is biochemical. For orientation: In fluorescence polarisation assays a small probe gives low polarisation when free and higher when bound to something large.

Where only a bound is given, the exact number is not on record here.

Sequence of nuclear factor-kappa B (NF-kB)-inducing kinase (NIK) (Q99558 whole entry): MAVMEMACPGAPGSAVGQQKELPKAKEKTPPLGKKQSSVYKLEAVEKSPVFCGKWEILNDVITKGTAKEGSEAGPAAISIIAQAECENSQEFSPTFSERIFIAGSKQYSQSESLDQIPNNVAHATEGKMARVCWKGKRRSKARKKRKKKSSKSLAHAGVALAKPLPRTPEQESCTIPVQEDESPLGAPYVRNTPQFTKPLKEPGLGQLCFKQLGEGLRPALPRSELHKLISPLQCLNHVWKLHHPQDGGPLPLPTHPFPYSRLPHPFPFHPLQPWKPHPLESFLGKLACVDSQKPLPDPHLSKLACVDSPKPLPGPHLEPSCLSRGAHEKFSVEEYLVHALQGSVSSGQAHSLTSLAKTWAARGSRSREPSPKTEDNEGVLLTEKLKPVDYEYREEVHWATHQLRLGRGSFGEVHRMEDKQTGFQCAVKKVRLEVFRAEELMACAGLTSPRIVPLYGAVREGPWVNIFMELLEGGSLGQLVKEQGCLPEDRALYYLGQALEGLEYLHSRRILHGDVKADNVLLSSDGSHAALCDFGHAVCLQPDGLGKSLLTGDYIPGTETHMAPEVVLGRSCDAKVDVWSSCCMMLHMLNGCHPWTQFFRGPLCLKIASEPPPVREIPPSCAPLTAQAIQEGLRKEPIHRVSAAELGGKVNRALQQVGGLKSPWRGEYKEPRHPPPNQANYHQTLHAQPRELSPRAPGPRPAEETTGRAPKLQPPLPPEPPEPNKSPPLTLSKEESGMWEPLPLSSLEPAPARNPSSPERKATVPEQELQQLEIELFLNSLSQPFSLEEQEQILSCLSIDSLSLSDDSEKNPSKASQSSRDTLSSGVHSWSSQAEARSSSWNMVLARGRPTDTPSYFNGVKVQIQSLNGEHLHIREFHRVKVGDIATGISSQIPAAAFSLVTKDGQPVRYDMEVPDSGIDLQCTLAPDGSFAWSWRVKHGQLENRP

In the case of `COc1cc2c(C(N)=O)nn(-c3cccc(C#C[C@]4(O)CCN(C)C4=O)c3)c2cn1` [Compound 150, 1-[3-[2-[(3R)-3-hydroxy-1-methyl-2-oxo-pyrrolidin-3-yl]ethynyl]phenyl]-5-methoxy-pyrazolo[3,4-c]pyridine-3-carboxamide], the results for the IC50 in experiment [1] and in experiment [2] were 57.3 nM and 20000 nM, respectively. The Ki in experiment [3] worked out at 0.29 nM.
`CN1CC[C@@](O)(C#Cc2cccc(-n3nc(C(N)=O)c4c3CCCN4)c2)C1=O` [Compound 151, 1-[3-[2-[(3R)-3-hydroxy-1-methyl-2-oxo-pyrrolidin-3-yl]ethynyl]phenyl]-4,5,6,7-tetra-hydropyrazolo[4,3-b]pyri-dine-3-carboxamide]: the figures for the 50% inhibitory concentration (IC50) in experiment [1] and in experiment [2] were 1030 nM and 2000 nM, respectively. The Ki in experiment [3] amounted to 3.96 nM.
For the molecule `Cc1cc(C#C[C@]2(O)CCN(C)C2=O)cc(-n2nc(C(N)=O)c3cccnc32)c1` [Compound 152, 1-[3-[2-[(3R)-3-hydroxy-1-methyl-2-oxo-pyrrolidin-3-yl]ethynyl]-5-methyl-phenyl] pyrazolo[3,4-b]pyridine-3-carboxamide], the figures for the IC50 in experiment [1] and in experiment [2] were 45.8 nM and 20000 nM, respectively. Besides, the Ki in experiment [3] was 0.87 nM.
`CN1CC[C@@](O)(C#Cc2cccc(-n3nc(C(N)=O)c4ccc(Cl)nc43)c2)C1=O` [Compound 153, 6-chloro-1-[3-[2-[(3R)-3-hy-droxy-1-methyl-2-oxo-pyrroli-din-3-yl]ethynyl]phenyl] pyrazolo[3,4-b]pyridine-3-carboxamide]: the IC50 in experiment [1] came to 132 nM; in experiment [2] it was 2000 nM. The Ki in experiment [3] was found to be 0.52 nM.
In the same order, the values of `COc1ccc2c(C(N)=O)nn(-c3cccc(C#C[C@]4(O)CCN(C)C4=O)c3)c2n1` [Compound 154, 1-[3-[2-[(3R)-3-hydroxy-1-methyl-2-oxo-pyrrolidin-3-yl]ethynyl]phenyl]-6-methoxy-pyrazolo[3,4-b]pyridine-3-carboxamide] are 33.9 nM, 2000 nM and 0.05 nM.
Regarding `CN1CC[C@@](O)(C#Cc2cccc(-n3nc(C(N)=O)c4ccc(N5CCOCC5)nc43)c2)C1=O` [Compound 155, 1-[3-[2-[(3R)-3-hydroxy-1-methyl-2-oxo-pyrrolidin-3-yl]ethynyl]phenyl]-6-morpho-lino-pyrazolo[3,4-b]pyri-dine-3-carboxamide], the results for the IC50 in experiment [1] and in experiment [2] were 129 nM and 20000 nM, respectively. Also, in experiment [3], the Ki turned out to be 0.26 nM.
`CN1CC[C@@](O)(C#Cc2cccc(-n3nc(C(N)=O)c4ccc(-c5cnn(C)c5)nc43)c2)C1=O` [Compound 156, 1-[3-[2-[(3R)-3-hydroxy-1-methyl-2-oxo-pyrrolidin-3-yl]ethynyl]phenyl]-6-(1-meth-ylpyrazol-4-yl)pyrazolo[3,4-b] pyridine-3-carboxamide]: the IC50 in experiment [1] was 95.7 nM; in experiment [2], 2000 nM. In addition, the Ki in experiment [3] is 0.09 nM.
For `Cc1ncc2c(C(N)=O)nn(-c3cccc(C#C[C@]4(O)CCN(C)C4=O)c3)c2n1` [Compound 157, 1-[3-[2-[(3R)-3-hydroxy-1-methyl-2-oxo-pyrrolidin-3-yl]ethynyl]phenyl]-6-methyl-pyrazolo[3,4-d]pyrimidine-3-carboxamide] the same measures were 157 nM, 2000 nM and 0.68 nM.
Regarding `CN1CC[C@@](O)(C#Cc2cccc(-n3nc(C(N)=O)c4cnc(C5CC5)nc43)c2)C1=O` [Compound 158, 6-cyclopropyl-1-[3-[2-[(3R)-3-hydroxy-1-methyl-2-oxo-pyrrolidin-3-yl]ethynyl]phenyl]pyrazolo[3,4-d]pyri-midine-3-carboxamide], the figures for the IC50 in experiment [1] and in experiment [2] were 46.2 nM and 2000 nM, respectively. Further, in experiment [3], the Ki worked out at 0.23 nM.
In the same order, the values of `CN1CC[C@@](O)(C#Cc2cccc(-n3nc(C(N)=O)c4cnc(C(F)(F)F)nc43)c2)C1=O` [Compound 159, 1-[3-[2-[(3R)-3-hydroxy-1-methyl-2-oxo-pyrrolidin-3-yl]ethynyl]phenyl]-6-(trifluoro-methyl)pyrazolo[3,4-d] pyrimidine-3-carboxamide] are 2000 nM, 2000 nM and 7.13 nM.
For `COc1ncc2c(C(N)=O)nn(-c3cccc(C#C[C@]4(O)CCN(C)C4=O)c3)c2n1` [Compound 160, 1-[3-[2-[(3R)-3-hydroxy-1-methyl-2-oxo-pyrrolidin-3-yl]ethynyl]phenyl]-6-methoxy-pyrazolo[3,4-d]pyrimidine-3-carboxamide] the same measures were 66.8 nM, 20000 nM and 0.13 nM.
For `CN1CC[C@@](O)(C#Cc2cccc(-n3nc(C(N)=O)c4cc(OCCN5CCC5)ccc43)c2)C1=O` [Compound 161, 5-[2-(azetidin-1-yl)ethoxy]-1-[3-[2-[(3R)-3-hydroxy-1-methyl-2-oxo-pyrrolidin-3-yl]ethynyl]phenyl]indazole-3-carboxamide] the same measures were 770 nM, 2000 nM and 2.52 nM.
For `CN1CC[C@@](O)(C#Cc2cccc(-n3nc(C(N)=O)c4cc(OCCN5CCOCC5)ccc43)c2)C1=O` [Compound 162, 1-[3-[2-[(3R)-3-hydroxy-1-methyl-2-oxo-pyrrolidin-3-yl]ethynyl]phenyl]-5-(2-morpho-linoethoxy)indazole-3-carboxamide], the IC50 is 237 nM in experiment [1] and 2000 nM in experiment [2]. Moreover, in experiment [3], the Ki amounted to 0.35 nM.
As to `CN1CC[C@@](O)(C#Cc2cccc(-n3nc(C(N)=O)c4ncccc43)c2)C1=O` [Compound 164, 1-[3-[2-[(3R)-3-hydroxy-1-methyl-2-oxo-pyrrolidin-3-yl]ethynyl]phenyl)pyrazolo [4,3-b]pyridine-3-carboxamide], the IC50 in experiment [1] is 208 nM; in experiment [2] it was 20000 nM. The Ki in experiment [3] is 1.54 nM.
For `CCOC(=O)N1CCc2c(c(C(N)=O)nn2-c2cc(C#C[C@]3(O)CCN(C)C3=O)ccn2)C1` [Compound 165, ethyl 3-carbamoyl-1-[4-[2-[(3R)-3-hydroxy-1-methyl-2-oxo-pyrrolidin-3-yl]ethynyl]-2-pyridyl]-6,7-dihydro-4H-pyra-zolo[4,3-c]pyridine-5-car-boxylate] the same measures were 274 nM, 20000 nM and 0.23 nM.
Take `CN1CC[C@@](O)(C#Cc2cc(-n3nc(C(N)=O)c4c3CCCC4)ccn2)C1=O` [Compound 166, 1-[2-[2-[(3R)-3-hydroxy-1-methyl-2-oxo-pyrrolidin-3-yl]ethynyl]-4-pyridyl]-4,5,6,7-tetrahydroindazole-3-carbox-amide]: the values for the IC50 in experiment [1] and in experiment [2] were 320 nM and 20000 nM, respectively. The inhibition constant Ki in experiment [3] is 1.19 nM.
On to `CN1CC[C@@](O)(C#Cc2cc(-n3nc(C(N)=O)c4c3CCCC4)ccc2C#N)C1=O` [Compound 167, 1-[4-cyano-3-[2-[(3R)-3-hy-droxy-1-methyl-2-oxo-pyrroli-din-3-yl]ethynyl]phenyl]-4,5,6,7-tetrahydroindazole-3-carboxamide], for which the IC50 came to 397 nM in experiment [1] and 20000 nM in experiment [2]. In addition, the Ki in experiment [3] amounted to 1.93 nM.
In the same order, the values of `CN1CC[C@@](O)(C#Cc2cccc(-n3nc(C(N)=O)c4c3[C@H](O)CC4)c2)C1=O` [Compound 169, (6R)-6-hydroxy-1-[3-[2-[(3R)-3-hydroxy-1-methyl-2-oxo-pyrrolidin-3-yl]ethynyl]phenyl]-5,6-dihydro-4H-cyclo-penta[c]pyrazole-3-carbox-amide] are 1120 nM, 20000 nM and 2.96 nM.
On to `COc1cc2c(C(N)=O)nn(-c3cccc(C#C[C@]4(O)CCN(C)C4=O)c3)c2nn1` [Compound 173, 1-[3-[2-[(3R)-3-hydroxy-1-methyl-2-oxo-pyrrolidin-3-yl]ethynyl]phenyl]-5-methoxy-pyrazolo[3,4-c]pyridazine-3-carboxamide], for which the IC50 in experiment [1] came out at 176 nM; in experiment [2], 2000 nM. Further, in experiment [3], the Ki was found to be 0.55 nM.
In the same order, the values of `CN1CC[C@@](O)(C#Cc2cccc(-n3nc(C(N)=O)c4ccnnc43)c2)C1=O` [Compound 174, 1-[3-[2-[(3R)-3-hydroxy-1-methyl-2-oxo-pyrrolidin-3-yl]ethynyl]phenyl]pyrazolo [3,4-c]pyridazine-3-carbox-amide] are 2000 nM, 2000 nM and 0.13 nM.
In the same order, the values of `Cc1ccc2c(C(N)=O)nn(-c3cccc(C#C[C@]4(O)CCN(C)C4=O)c3)c2n1` [Compound 175, 1-[3-[2-[(3R)-3-hydroxy-1-methyl-2-oxo-pyrrolidin-3-yl]ethynyl]phenyl]-6-methyl-pyrazolo[3,4-b]pyridine-3-carboxamide] are 135 nM, > 2000 nM and 0.05 nM.
`CN1CC[C@@](O)(C#Cc2cccc(-c3nc(C(N)=O)n4c3CCCC4)c2)C1=O` [Compound 177, (R)-1-(3-((3-hydroxy-1-methyl-2-oxopyrrolidin-3-yl)ethynyl)phenyl)-5,6,7,8-tetrahydroimidazo[1,5-a]pyridine-3-carboxamide]: the IC50 is 150 nM in experiment [1] and > 2000 nM in experiment [2]. In experiment [3], the Ki is 0.11 nM.
